Earlier results as cited in PubChem BioAssay AID1259409 (Chemical Carcinogenesis Research Information System (CCRIS), 2018).

System: rodent chemically induced tumor inhibition, incidence and multiplicity
Experiment: CCRIS tumor inhibitor studies
Details: Carcinogen: DIETHYLNITROSAMINE, 55-18-5, Dose [Inhibitor]: 0, Route [Inhibitor]: ORAL, Species: RAT, Strain/Sex: BD6/FEMALE, Promoter: NONE USED

O=C1O[C@H]([C@@H](O)CO)C(O)=C1O
tumour outcome (control, treated, inhibition, significance) (3 G/L IN DRINKING WATER BEGINNING 1 D PRIOR TO FIRST CARCINOGEN DOSE AND CONTINUING TO 2 D POST LAST CARCINOGEN DOSE, Target Tissue: Type of Lesion: LIVER: TUMOR, Dose [Carcinogen]: 80 MG/KG BW 1/WK FOR 8 WK): 94%, 90%, 4%, not significant | tumour outcome (control, treated, inhibition, significance) (3 G/L IN DRINKING WATER FOR DURATION OF STUDY BEGINNING 1 D PRIOR TO FIRST CARCINOGEN DOSE (STUDY DURATION: 6 MO), Target Tissue: Type of Lesion: ESOPHAGUS: TUMOR, Dose [Carcinogen]: 80 MG/KG BW 1/WK FOR 6 WK): 14%, 0%, 100%, not significant | tumour outcome (control, treated, inhibition, significance) (3 G/L IN DRINKING WATER FOR DURATION OF STUDY BEGINNING 1 D PRIOR TO FIRST CARCINOGEN DOSE (STUDY DURATION: 6 MO), Target Tissue: Type of Lesion: ESOPHAGUS: TUMOR, Dose [Carcinogen]: 80 MG/KG BW 1/WK FOR 10 WK): 35%, 19%, 46%, not significant | tumour outcome (control, treated, inhibition, significance) (3 G/L IN DRINKING WATER FOR DURATION OF STUDY BEGINNING 1 D PRIOR TO FIRST CARCINOGEN DOSE (STUDY DURATION: 6 MO), Target Tissue: Type of Lesion: LIVER: TUMOR, Dose [Carcinogen]: 80 MG/KG BW 1/WK FOR 6 WK): 52%, 25%, 52%, not significant | tumour outcome (control, treated, inhibition, significance) (3 G/L IN DRINKING WATER FOR DURATION OF STUDY BEGINNING 1 D PRIOR TO FIRST CARCINOGEN DOSE (STUDY DURATION: 6 MO), Target Tissue: Type of Lesion: LIVER: TUMOR, Dose [Carcinogen]: 80 MG/KG BW 1/WK FOR 10 WK): 100%, 96%, 4%, not significant | tumour outcome (control, treated, inhibition, significance) (3 G/L IN DRINKING WATER FOR DURATION OF STUDY BEGINNING 2 D POST CARCINOGEN TREATMENT (STUDY DURATION: 6 MO), Target Tissue: Type of Lesion: ESOPHAGUS: TUMOR, Dose [Carcinogen]: 80 MG/KG BW 1/WK FOR 10 WK): 35%, 10%, 71%, not significant | tumour outcome (control, treated, inhibition, significance) (10 G/L IN DRINKING WATER BEGINNING 1 D PRIOR TO FIRST CARCINOGEN DOSE AND CONTINUING TO 2 D POST LAST CARCINOGEN DOSE, Target Tissue: Type of Lesion: ESOPHAGUS: TUMOR, Dose [Carcinogen]: 80 MG/KG BW 1/WK FOR 8 WK): 31%, 32%, -3%, not significant | tumour outcome (control, treated, inhibition, significance) (10 G/L IN DRINKING WATER BEGINNING 1 D PRIOR TO FIRST CARCINOGEN DOSE AND CONTINUING TO 2 D POST LAST CARCINOGEN DOSE, Target Tissue: Type of Lesion: LIVER: TUMOR, Dose [Carcinogen]: 80 MG/KG BW 1/WK FOR 8 WK): 94%, 95%, -1%, not significant | tumour outcome (control, treated, inhibition, significance) (10 G/L IN DRINKING WATER FOR DURATION OF STUDY BEGINNING 1 D PRIOR TO FIRST CARCINOGEN DOSE (STUDY DURATION: 6 MO), Target Tissue: Type of Lesion: ESOPHAGUS: TUMOR, Dose [Carcinogen]: 80 MG/KG BW 1/WK FOR 10 WK): 35%, 28%, 20%, not significant | tumour outcome (control, treated, inhibition, significance) (10 G/L IN DRINKING WATER FOR DURATION OF STUDY BEGINNING 1 D PRIOR TO FIRST CARCINOGEN DOSE (STUDY DURATION: 6 MO), Target Tissue: Type of Lesion: LIVER: TUMOR, Dose [Carcinogen]: 80 MG/KG BW 1/WK FOR 10 WK): 100%, 88%, 12%, not significant | tumour outcome (control, treated, inhibition, significance) (10 G/L IN DRINKING WATER FOR DURATION OF STUDY BEGINNING 2 D POST CARCINOGEN TREATMENT (STUDY DURATION: 6 MO), Target Tissue: Type of Lesion: ESOPHAGUS: TUMOR, Dose [Carcinogen]: 80 MG/KG BW 1/WK FOR 10 WK): 35%, 33%, 6%, not significant | tumour outcome (control, treated, inhibition, significance) (10 G/L IN DRINKING WATER FOR DURATION OF STUDY BEGINNING 2 D POST CARCINOGEN TREATMENT (STUDY DURATION: 6 MO), Target Tissue: Type of Lesion: LIVER: TUMOR, Dose [Carcinogen]: 80 MG/KG BW 1/WK FOR 10 WK): 100%, 100%, 0%, not significant | tumour outcome (control, treated, inhibition, significance) (15 G/L IN DRINKING WATER BEGINNING 1 D PRIOR TO FIRST CARCINOGEN DOSE AND CONTINUING TO 2 D POST LAST CARCINOGEN DOSE, Target Tissue: Type of Lesion: ESOPHAGUS: TUMOR, Dose [Carcinogen]: 80 MG/KG BW 1/WK FOR 8 WK): 31%, 26%, 16%, not significant | tumour outcome (control, treated, inhibition, significance) (15 G/L IN DRINKING WATER BEGINNING 1 D PRIOR TO FIRST CARCINOGEN DOSE AND CONTINUING TO 2 D POST LAST CARCINOGEN DOSE, Target Tissue: Type of Lesion: LIVER: TUMOR, Dose [Carcinogen]: 80 MG/KG BW 1/WK FOR 8 WK): 94%, 90%, 4%, not significant
